Among the data in PMC6627438, “Terrosamycins A and B, Bioactive Polyether Ionophores from Streptomyces sp. RKND004 from Prince Edward Island Sediment” (Marine Drugs, 2019) are IC50 values, retold here.

Molecules are shown by their SMILES. Where two headings read alike, the source gives them in different places.

For experiment [1], the system named is human breast adenocarcinoma cells (ATCC HTB-26). As to the kind of experiment: Cytotoxicity assay (alamarBlue), HTB-26. In kind it is cell-based. The note with it: read-out: IC50 HTB-26. On the procedure: (§1) In light of this information, 1, 2 and the known polyether standards were tested against a human breast adenocarcinoma cell line (HTB-26) and a human invasive breast ductal carcinoma cell line (MCF-7). The compounds were also tested in a healthy human foreskin fibroblast cell line (BJ) and healthy Cercopithecus aethiops kidney epithelial cells (Vero) as an evaluation of cytotoxicity toward healthy cells.
(§2) The cytotoxicities of compounds 1–5 were evaluated using two healthy cell lines—human foreskin fibroblast cells (BJ, ATCC CRL-2522) and Cercopithecus aethiops kidney epithelial cells (Vero, ATCC CCL-81)—as well as two cancer cell lines—human breast adenocarcinoma cells (ATCC HTB-26) and human invasive breast ductal carcinoma cells (ATCC MCF-7). Each cell line was grown and maintained in 15 mL of Eagle’s Minimal Essential Medium in T75 cm^2 cell culture flasks with the exception of HTB-26 cells which were grown in Dulbecco’s Modified Eagle’s Medium/Nutrient Mixture F-12 Ham. All growth media were supplemented with 10% fetal bovine serum, […] penicillin and 0.1 mg/mL streptomycin; the growth medium for MCF-7 cells was also supplemented with 0.01 mg/mL human recombinant insulin. All cell cultures were incubated at 37 °C in a humidified atmosphere with 5% CO2 and culture media was refreshed every two to three days. The cells were not allowed to exceed 80% confluency. At 80% confluency, the cells were counted and diluted in their respective growth medium without addition of antibiotics. Aliquots of 90 μL were added to a microwell plate at a density of 1 × 10^4 cells/well for Vero and HTB-26 cells and 5 × 10^3 cells/well for BJ fibroblast and MCF-7 cells. The plates were incubated at 37 °C with 5% CO2 for 24 h to allow cells to adhere to the plates prior to treatment. The vehicle DMSO was used to dissolve 1 and 2 and was present at a final concentration of 1% in each of the wells. A dilution series was prepared for each cell line using the respective growth medium and 10 μL aliquots of each was added to the respective plate in concentrations ranging from 128 μg/mL to 1 μg/mL in triplicate. Positive control wells contained only the growth medium and DMSO, negative control wells contained the growth medium, DMSO and cells and positive treated controls contained the growth medium, cells and a concentration range of either zinc pyrithione (BJ fibroblast), phenoxyethanol (Vero), or doxorubicin (HTB-26 and MCF-7). All plates were incubated at 37 °C with 5% CO2 for 24 h (BJ fibroblast, Vero) or 72 h (HTB-26, MCF-7). Following incubation, alamarBlue was added to each well at a concentration of 10% (v/v). Fluorescence was measured at 560 nm excitation and 590 nm emission using a Thermo Scientific Varioskan Flash plate reader at time zero and 4 h after treatment with alamarBlue. The change in 590 nm emission reading was used to calculate percent cell viability after each treatment relative to the negative controls. The IC50 values of compounds 1–5 for each cell line were calculated using GraphPad Prism 6.0.
On the technique in general: Alamar Blue is a resazurin reagent that responds to reducing activity.

Experiment [2] has as its system human invasive breast ductal carcinoma cells (ATCC MCF-7). As to the kind of experiment: Cytotoxicity assay (alamarBlue), MCF-7. It is filed as cell-based. Conditions: read-out: IC50 MCF-7. The method, then: as §1, §2
The test system of experiment [3] is human foreskin fibroblast cells (BJ, ATCC CRL-2522). As to the kind of experiment: Cytotoxicity assay (alamarBlue), BJ. It is filed as cell-based. The note with it: 24 h, read-out: IC50 BJ. The method, then:
as §1, §2

In experiment [4] the test system is vancomycin resistant E. faecium EF379 (VRE). As to the kind of experiment: Antimicrobial assay (OD600 growth, CLSI microdilution), VRE. Conditions: 22 h, read-out: IC50 VRE. It is filed as cell-based, Enterococcus faecium. The method, then: The antimicrobial activities of 1 and 2 were evaluated against a panel of pathogens. For comparison, three known polyether ionophore standards were selected and tested in parallel. […] The compounds were each tested against the Gram-positive pathogens methicillin-resistant Staphyloccocus aureus (MRSA), vancomycin resistant Enterococcus faecium (VRE) and Staphylococcus warneri, Gram-negative pathogens Pseudomonas aeruginosa and Proteus vulgaris, and the yeast Candida albicans.
The antimicrobial activities of 1–5 were evaluated using a panel of human pathogens including methicillin-resistant S. aureus ATCC 33591 (MRSA), vancomycin resistant E. faecium EF379 (VRE), S. warneri ATCC 17917, P. aeruginosa ATCC 14210, P. vulgaris ATCC 12454 and C. albicans ATCC 14035. Assays were performed according to Clinical Laboratory Standards Institute testing standards in a 96-well plate and in triplicate. […] A Thermo Scientific Varioskan Flash plate reader was used to determine cell growth by measuring the optical density at 600 nm at time zero and after incubation at 37 °C for 22 h. The change in OD600 was calculated, percentages of microorganism survival were compared to the vehicle control wells and IC50 values were determined using GraphPad Prism 6.0 (GraphPad Software, San Diego, CA, USA). Control antibiotics used were vancomycin for MRSA and S. warneri, rifampicin for VRE, gentamycin for P. aeruginosa, ciprofloxacin for P. vulgaris and nystatin for C. albicans.

Experiment [5] concerns methicillin-resistant S. aureus ATCC 33591 (MRSA). Kind of experiment: Antimicrobial assay (OD600 growth, CLSI microdilution), MRSA. In kind it is cell-based, Staphyloccocus aureus. The note with it: Staphylococcus aureus, 22 h, read-out: IC50 MRSA. The method, then:
(§3) The antimicrobial activities of 1 and 2 were evaluated against a panel of pathogens. For comparison, three known polyether ionophore standards were selected and tested in parallel. […] Furthermore, salinomycin and monensin are currently approved and marketed as antibiotics and anticoccidial agents for cattle and poultry. The compounds were each tested against the Gram-positive pathogens methicillin-resistant Staphyloccocus aureus (MRSA), vancomycin resistant Enterococcus faecium (VRE) and Staphylococcus warneri, Gram-negative pathogens Pseudomonas aeruginosa and Proteus vulgaris, and the yeast Candida albicans. No activity was observed against P. aeruginosa, P. vulgaris or C. albicans at the highest concentration tested (128 μg/mL).
(§4) The antimicrobial activities of 1–5 were evaluated using a panel of human pathogens including methicillin-resistant S. aureus ATCC 33591 (MRSA), vancomycin resistant E. faecium EF379 (VRE), S. warneri ATCC 17917, P. aeruginosa ATCC 14210, P. vulgaris ATCC 12454 and C. albicans ATCC 14035. Assays were performed according to Clinical Laboratory Standards Institute testing standards in a 96-well plate and in triplicate. Compounds 1–5 were dissolved in sterile 20% DMSO and serially diluted creating a range of twelve concentrations between 128 μg/mL and 0.0625 μg/mL. A Thermo Scientific Varioskan Flash plate reader was used to determine cell growth by measuring the optical density at 600 nm at time zero and after incubation at 37 °C for 22 h. The change in OD600 was calculated, percentages of microorganism survival were compared to the vehicle control wells and IC50 values were determined using GraphPad Prism 6.0 (GraphPad Software, San Diego, CA, USA). Control antibiotics used were vancomycin for MRSA and S. warneri, rifampicin for VRE, gentamycin for P. aeruginosa, ciprofloxacin for P. vulgaris and nystatin for C. albicans.
(Dilution methods test growth across graded concentrations, often in twofold steps.)

Experiment [6] has as its system Cercopithecus aethiops kidney epithelial cells (Vero, ATCC CCL-81). As to the kind of experiment: Cytotoxicity assay (alamarBlue), Vero. In kind it is cell-based. Conditions: Chlorocebus sabaeus, 24 h, read-out: IC50 Vero. On the procedure:
as §1, §2

In the next experiment the test system is S. warneri ATCC 17917. As to the kind of experiment: Antimicrobial assay (OD600 growth, CLSI microdilution), S. warneri. In kind it is cell-based. Conditions: Staphylococcus warneri, read-out: IC50 S. warneri. On the procedure: as §3, §4
Setting [7] is: HTB26, average ± SE (n = 3), 72 h, alamarBlue, breast cancer cell line.
Setting [8] is: MCF7, average ± SE (n = 3), 72 h, alamarBlue, breast cancer cell line.
[9] abbreviates: average ± SE (n = 3), alamarBlue, healthy cell line.
The mark [10] stands for this setting: average ± SE (n = 6), 37 °C, OD600.
Where [11] appears, read: ATCC17917, average ± SE (n = 6), 37 °C, 22 h, OD600.

Broadly, the IC50 is the concentration needed to halve the response being measured. Take `COc1cccc2c1C(=O)c1c(O)c3c(c(O)c1C2=O)C[C@@](O)(C(=O)CO)C[C@@H]3O[C@H]1C[C@H](N)[C@H](O)[C@H](C)O1` [doxorubicin control, doxorubicin]: the IC50 was found to be 4 ± 2 µM in experiment [1] (setting [7]) and 0.8 ± 0.1 µM in experiment [2] (setting [8]).
With `CC[C@@]1([C@@H]2O[C@@H]([C@H]3O[C@@](O)(CO)[C@H](C)C[C@@H]3C)C[C@@H]2C)CC[C@H]([C@]2(C)CC[C@]3(C[C@H](O)[C@@H](C)[C@@H]([C@@H](C)[C@@H](OC)[C@H](C)C(=O)O)O3)O2)O1` [monensin (4), monensin], the IC50 was determined as 10 ± 1 µM in experiment [1] (setting [7]); 245 ± 11 µM in experiment [3] (setting [9]); 8 ± 5 µM in experiment [4] (setting [10]); 1.5 ± 0.1 µM in experiment [5] (setting [10]); 10000 µM in experiment [6] (setting [9]); 7 ± 2 µM in experiment [2] (setting [8]). Moreover, the IC50 in the experiment with S. warneri ATCC 17917 (setting [11]) worked out at 2 ± 0.2 µM.
Consider `CO[C@@H]1C[C@@H](C[C@H]2CC[C@H](C)[C@H]([C@@H](C)C(=O)O)O2)O[C@]2(O[C@](C)([C@H]3CC[C@@](C)([C@@H]4O[C@@H]([C@H]5O[C@@](O)(CO)[C@H](C)C[C@@H]5C)C[C@@H]4C)O3)C[C@H]2C)[C@@H]1C` [nigericin (5), nigericin], for which the IC50 in experiment [1] (setting [7]) worked out at 13 ± 2 µM; in experiment [3] (setting [9]), 221 ± 10 µM; in experiment [4] (setting [10]) it was 0.5 ± 0.1 µM; in experiment [5] (setting [10]) it was 0.2 ± 0.1 µM; in experiment [6] (setting [9]), 61 ± 8 µM; in experiment [2] (setting [8]), 9 ± 3 µM. For the same compound, the IC50 in the experiment with S. warneri ATCC 17917 (setting [11]) is 0.3 ± 0.1 µM.
`CO[C@H]1/C=C/O[C@@]2(C)Oc3c(C)c(O)c4c(O)c(c(/C=N/N5CCN(C)CC5)c(O)c4c3C2=O)NC(=O)/C(C)=C\C=C\[C@H](C)[C@H](O)[C@@H](C)[C@@H](O)[C@@H](C)[C@H](OC(C)=O)[C@@H]1C` [rifampicin control, rifampicin]: the IC50 in experiment [4] (setting [10]) amounted to 1.1 ± 0.1 µM.
`CC[C@@H](C(=O)[C@@H](C)[C@@H](O)[C@H](C)[C@@H]1O[C@@H]([C@@H](CC)C(=O)O)CC[C@@H]1C)[C@H]1O[C@]2(C=C[C@@H](O)[C@]3(CC[C@@](C)([C@H]4CC[C@](O)(CC)[C@H](C)O4)O3)O2)[C@H](C)C[C@@H]1C` [salinomycin (3), salinomycin]: the IC50 turned out to be 13 ± 1 µM in experiment [1] (setting [7]); 196 ± 3 µM in experiment [3] (setting [9]); 0.8 ± 0.2 µM in experiment [4]; 0.4 ± 0.1 µM in experiment [5]; 78 ± 22 µM in experiment [6] (setting [9]); 10 ± 3 µM in experiment [2] (setting [8]). Also, the IC50 in the experiment on S. warneri ATCC 17917 (setting [11]) came out at 0.9 ± 0.2 µM.
Take `C[C@@H]1C[C@H](C)[C@@](O)(C[C@H]2O[C@@](O)(C[C@@H](O)[C@@H](C)C(=O)[C@](C)(O)[C@@H]3CC[C@@](C)([C@H]4CC[C@@](C)(O)[C@H](C)O4)O3)[C@H](C)C[C@@H]2C)O[C@H]1C[C@H]1CC[C@H](C)[C@@H]([C@@H](C)C(=O)O)O1` [terrosamycin A (1), terrosamycin A]: the IC50 in experiment [1] (HTB26, 72 h) was determined as 10.1 ± 0.6 µM; in experiment [3], 79 ± 5 µM; in experiment [4], 0.58 ± 0.04 µM; in experiment [5], 0.5 ± 0.2 µM; in experiment [6] it was 36 ± 6 µM; in experiment [2] (MCF7, 72 h), 6 ± 1 µM. The IC50 with S. warneri ATCC 17917 (ATCC17917, 22 h) is 0.9 ± 0.3 µM.
Regarding `CO[C@@]1(C[C@@H](O)[C@@H](C)C(=O)[C@](C)(O)[C@@H]2CC[C@@](C)([C@H]3CC[C@@](C)(O)[C@H](C)O3)O2)O[C@H](C[C@@]2(OC)O[C@@H](C[C@H]3CC[C@H](C)[C@@H]([C@@H](C)C(=O)O)O3)[C@H](C)C[C@@H]2C)[C@@H](C)C[C@H]1C` [terrosamycin B (2), terrosamycin B], the IC50 turned out to be 6 ± 1 µM in experiment [1] (HTB26, 72 h); 267 ± 28 µM in experiment [3]; 0.5 ± 0.1 µM in experiment [4]; 0.34 ± 0.04 µM in experiment [5]; 93 ± 4 µM in experiment [6]; 3.9 ± 0.4 µM in experiment [2] (MCF7, 72 h). For the same compound, in the experiment on S. warneri ATCC 17917 (ATCC17917, 22 h), the IC50 was 0.7 ± 0.1 µM.
With `CN[C@H](CC(C)C)C(=O)N[C@H]1C(=O)N[C@@H](CC(N)=O)C(=O)N[C@H]2C(=O)N[C@H]3C(=O)N[C@H](C(=O)N[C@H](C(=O)O)c4cc(O)cc(O)c4-c4cc3ccc4O)[C@H](O)c3ccc(c(Cl)c3)Oc3cc2cc(c3O[C@@H]2O[C@H](CO)[C@@H](O)[C@H](O)[C@H]2O[C@H]2C[C@](C)(N)[C@H](O)[C@H](C)O2)Oc2ccc(cc2Cl)[C@H]1O` [vancomycin control, vancomycin], the IC50 in experiment [5] is 0.8 ± 0.1 µM; in the experiment on S. warneri ATCC 17917 (ATCC17917, 22 h), 0.53 ± 0.01 µM.
